Source: US9481654B2, “Compositions and methods for inhibition of the JAK pathway” (Rigel Pharmaceuticals, Inc., priority 2006, dated 2016)

What was measured:
[1] = tested on: IFNγ induced ICAM-1 (CD54) up-regulation in U937 human monocytic cells (JAK/Stat pathway); test: U937 IFNγ ICAM1 FACS Assay; assay type: cell-based; details: Table III Example 6, 10 ng/mL IFNγ, 18-24 hours
How it was run: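 Flow cytometry gave ICAM-1 (CD54) up-regulation as ICAM-APC geometric mean within the live-cell gate, alongside % viable cells. Human monocytic U937 cells received 3-fold serial compound dilutions for 30 min at 37 °C, followed by IFNγ stimulation lasting 18–24 h. Dose curves yielded EC50s.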

[2] = tested on: IFNγ induced ICAM-1 (CD54) up-regulation in A549 lung epithelial cells (JAK/Stat pathway); test: A549 Epithelial Line Stimulated with IFNγ (ICAM-1 surface expression, flow cytometry); assay type: cell-based, human
From the text: The activity of the compounds of the invention may additionally be characterized by assaying the effect of the 2,4-pyrimidinediamine compounds described herein on A549 lung epithelial cells and U937 cells. A549 lung epithelial cells and U937 cells up-regulate ICAM-1 (CD54) surface expression in response to a variety of different stimuli. Therefore, using ICAM-1 expression as readout, test compound effects on different signaling pathways can be assessed in the same cell type. Stimulation with IL-1β through the IL-1β receptor activates the TRAF6/NFκB pathway resulting in up-regulation of ICAM-1. IFNγ induces ICAM-1 up-regulation through activation of the JAK1/JAK2 pathway. The up-regulation of ICAM-1 can be quantified by flow cytometry across a compound dose curve and EC50 values are calculated. Exemplary assays of this type are described in greater detail in Examples 5 and 6.
A549 lung epithelial cells up-regulate ICAM-1 (CD54) surface expression in response to a variety of different stimuli. Therefore, using ICAM-1 expression as readout, compound effects on different signaling pathways can be assessed in the same cell type. IFNγ up-regulates ICAM-1 through activation of the JAK/Stat pathway. In this example, the up-regulation of ICAM-1 by IFNγ was assessed.
The A549 lung epithelial carcinoma cell line originated from the American Type Culture Collection. Routine culturing was with F12K media (Mediatech Inc., Lenexa, Kans., Cat. No. 10-025-CV) with 10% fetal bovine serum, 100 I.U. penicillin and […] streptomycin (complete F12k media). Cells were incubated in a humidified atmosphere of 5% CO2 at 37° C. Prior to use in the assay, A549 cells were washed with PBS and trypsinized (Mediatech Inc., Cat. No. 25-052-CI) to lift the cells. The trypsin cell suspension was neutralized with complete F12K media and centrifuged to pellet the cells. The cell pellet was resuspended in complete F12K media at a concentration of 2.0×10^5/mL. Cells were seeded at 20,000 per well, 100 μL total volume, in a flat bottom tissue culture plate and allowed to adhere overnight.
On day two, A549 cells were pre-incubated with a 2,4-pyrimidinediamine test compound or DMSO (control) (Sigma-Aldrich, St. Louis, Mo., Catalog No. D2650) for 1 hour. The cells were then stimulated with IFNγ (75 ng/mL) (Peprotech Inc., Rocky Hill, N.J., Cat. No. 300-02) and allowed to incubate for 24 hours. The final test compound dose range was 30 μM to 14 nM in 200 μL F12K media containing 5% FBS, 0.3% DMSO.
On day three, the cell media was removed and the cells were washed with 200 μL PBS (phosphate buffered saline). Each well was trypsinized to dissociate the cells, then neutralized by addition of 200 μL complete F12K media. Cells were pelleted and stained with an APC conjugated mouse anti-human ICAM-1 (CD54) (BD Pharmingen, San Diego, Calif., Catalog #559771) antibody for 20 minutes at 4° C. Cells were washed with ice cold FACS buffer (PBS+2% FBS) and surface ICAM-1 expression was analyzed by flow cytometry. Detection was performed using a BD LSR I System Flow Cytometer, purchased from BD Biosciences of San Jose, Calif. Events were gated for live scatter and the geometric mean was calculated (Becton-Dickinson CellQuest software version 3.3, Franklin Lakes, N.J.). Geometric means were plotted against the compound concentration to generate a dose response curve.

[3] = Homo sapiens, A549, Table III Example 5

| IC50 ([1]; Homo sapiens, U-937) | IC50 [2, 3] | SMILES | IC50 [1] | IC50 ([2]; Table III Example 5) |
| --- | --- | --- | --- | --- |
| 908 nM | 18.2 µM | C#CCNS(=O)(=O)Cc1ccc(Nc2nc(Nc3cccc(S(N)(=O)=O)c3)ncc2F)cc1 [Compound I-4, N2-(3-Aminosulfonylphenyl)-5-fluoro-N4-[4-(prop-2-ynylaminosulfonylmethyl)phenyl]-2,4-pyrimidinediamine] | – | – |
| 710 nM | 56.6 µM | C#CCNS(=O)(=O)Cc1ccc(Nc2nc(Nc3ccc(C)c(S(N)(=O)=O)c3)ncc2F)cc1 [Compound I-5, N2-(3-Aminosulfonyl-4-methylphenyl)-5-fluoro-N4-[4-(prop-2-ynylaminosulfonylmethyl)phenyl]-2,4-pyrimidinediamine] | – | – |
| – | – | CCS(=O)(=O)NCc1ccc(Nc2nc(Nc3ccc(C)c(S(N)(=O)=O)c3)ncc2F)cc1 [Compound I-10, N2-(3-aminosulfonyl-4-methyl)phenyl-N4-(4-ethylsulfonylaminomethyl)phenyl-5-fluoro-2,4-pyrimidinediamine] | 477 nM | 29.5 µM |
| – | – | CCS(=O)(=O)NCc1cccc(Nc2nc(Nc3cccc(S(N)(=O)=O)c3)ncc2F)c1 [Compound I-12, N2-(3-aminosulfonyl)phenyl-N4-(3-ethylsulfonylaminomethyl)phenyl-5-fluoro-2,4-pyrimidinediamine] | 1580 nM | 4.57 µM |
| – | – | CCS(=O)(=O)NCc1cccc(Nc2nc(Nc3ccc(C)c(S(N)(=O)=O)c3)ncc2F)c1 [Compound I-13, N2-(3-aminosulfonyl-4-methyl)phenyl-N4-(3-ethylsulfonylaminomethyl)phenyl-5-fluoro-2,4-pyrimidinediamine] | 536 nM | 3.63 µM |
| – | – | CCS(=O)(=O)NCCc1ccc(Nc2nc(Nc3ccc(C)c(S(N)(=O)=O)c3)ncc2F)cc1 [Compound I-16, N2-(3-aminosulfonyl-4-methyl)phenyl-N4-[4-(2-ethylsulfonylamino)ethyl]phenyl-5-fluoro-2,4-pyrimidinediamine] | 2280 nM | 9.01 µM |
| – | – | CCS(=O)(=O)NCc1ccc(Nc2nc(Nc3cccc(S(N)(=O)=O)c3)ncc2C)cc1 [Compound I-21, N2-(3-aminosulfonyl)phenyl-N4-(4-ethylsulfonylaminomethyl)phenyl-5-methyl-2,4-pyrimidinediamine] | 362 nM | 2.49 µM |
| – | – | CCS(=O)(=O)N[C@@H](C)c1ccc(Nc2nc(Nc3cccc(S(N)(=O)=O)c3)ncc2F)cc1 [Compound I-27, N2-(3-aminosulfonyl)phenyl-N4-[4-(1S-ethylsulfonylamino)ethyl]phenyl-5-fluoro-2,4-pyrimidinediamine] | 1240 nM | 5.84 µM |
| – | – | CCS(=O)(=O)N[C@H](C)c1ccc(Nc2nc(Nc3cccc(S(N)(=O)=O)c3)ncc2F)cc1 [Compound I-30, N2-(3-aminosulfonyl)phenyl-N4-[4-(1R-ethylsulfonylamino)ethyl]phenyl-5-fluoro-2,4-pyrimidinediamine] | 1160 nM | 6.1 µM |
| – | – | Cc1ccc(Nc2ncc(F)c(Nc3cccc(CNS(=O)(=O)C4CC4)c3)n2)cc1S(N)(=O)=O [Compound I-34, N2-(3-aminosulfonyl-4-methyl)phenyl-N4-(3-cyclopropylsulfonylaminomethyl)phenyl-5-fluoro-2,4-pyrimidinediamine] | 1190 nM | 5.7 µM |
| – | – | Cc1ccc(Nc2ncc(F)c(Nc3ccc(CNS(=O)(=O)c4cccs4)cc3)n2)cc1S(N)(=O)=O [Compound I-37, N2-(3-aminosulfonyl-4-methyl)phenyl-5-fluoro-N4-[4-(thiophen-2-yl)sulfonylaminomethyl]phenyl-2,4-pyrimidinediamine] | 375 nM | 27.7 µM |
| – | – | CCS(=O)(=O)NCCc1ccc(Nc2nc(Nc3cccc(S(N)(=O)=O)c3)ncc2C)cc1 [Compound I-39, N2-(3-aminosulfonyl)phenyl-N4-[4-(2-ethylsulfonylamino)ethyl]phenyl-5-methyl-2,4-pyrimidinediamine] | 604 nM | 3.75 µM |
